17 compounds from patent publication US6900216B2, “Dihydroimidazo[2,1-b]thiazole and dihydro-5h-thiazolo[3,2-A]pyrimidines as antidepressant agents” (Knoll GmbH, priority 2000, dated 2005) can be followed below.

The target of data set [1] is T1, noradrenaline (NA) reuptake sites (Rattus norvegicus, UniProt Q63380).
T1 construct: Frontal cortical tissue from the brains of male Charles River rats; from tissue; host or cells: rat frontal cortical membranes
Briefly: NA uptake: displacement of [3H]nisoxetine from noradrenaline reuptake sites, rat frontal cortical membranes. Format: binding. The following applies: for Ki: [3H]nisoxetine 0.6 nM, rat frontal cortical membranes, fit to data from three experiments; for inhibition at 1 µM: read-out: NA uptake % displacement at 10^−6 M. How it is done:
(§1) Frontal cortical tissue from the brains of male Charles River rats weighing 150-250 g was homogenised in ice-cold 50 mM Tris-HCl, pH 7.4 (at 25° C.) containing 120 mM sodium chloride and 5 mM potassium chloride (Tris buffer; 1:60 w/v) using a Kinematic polytron (speed setting 6 for 10 seconds) and centrifuged at 40,000 g for 10 minutes. The supernatant was discarded and the pellet rehomogenised in Tris buffer, 1:60 w/v, and centrifuged at 40,000 g for 10 minutes. This step was repeated twice more so that, in total, the brain tissue was homogenised and centrifuged four times. The final pellet was resuspended in 50 mM Tris-HCl, pH 7.4 containing 300 mM sodium chloride and 5 mM potassium chloride (equivalent to 18.75 mg wet weight of tissue/ml) and used immediately in the binding assay. All centrifugations were performed at 4° C.
Membranes (400 μl; equivalent to 7.5 mg wet weight of tissue/tube) were incubated with 50 μl [^3H]nisoxetine at a single concentration of 0.6 nM and 50 μl of distilled water (total binding) or 50 μl^− of test compound (at a single concentration 10^−6M or at 10 concentrations ranging from 10^−11-10^−3 M) or 50 μl of mazindol (1 μM; non-specific binding) for 4 h at 4° C. Membrane bound radioactivity was recovered by filtration under vacuum through Skatron 11734 filters using a Skatron cell harvester. Filters were rapidly washed with ice-cold 50 mM Tris-HCl, pH 7.4 containing 120 mM sodium chloride and 5 mM potassium chloride (wash setting 9,9,0). The scored filter paper discs were punched out into vials, scintillation fluid added and radioactivity determined by liquid scintillation counting.
(§2) For each of these tests measuring the ability of compounds of Formula I to displace standard ligands from 5-HT1A receptors and 5-hydroxytryptamine (5-HT) and noradrenaline (NA) reuptake sites and muscarinic receptors in vitro, the percentage displacement of specific binding of tritiated ligand by 10^−6 M test compound was calculated in the following way.
(§3) Firstly, specific binding of tritiated ligand in the absence (A) and presence (B) of test compound was determined:
(§4) In the absence of compound: A(dpm)=Total binding (dpm)−Non-specific binding (dpm) In the presence of compound (10^−6 M): B(dpm)=Binding at 10^−6M (dpm)−Non-specific binding (dpm)
(§5) The specific binding of tritiated ligand in the presence (B) of compound was then converted to a percentage of specific binding of tritiated ligand in the absence (A) of compound: % Specific binding at 10^−6 M=B(dpm)/A(dpm)×100
(§6) The percentage displacement of specific binding of tritiated ligand by the test compound (10^−6 M) was then obtained by subtraction of the percentage specific binding in the presence of compound from the percentage specific binding in the absence of compound, which is taken as the maximum binding and so equals 100%:
(§7) % Displacement at 10^−6 M=100−% Specific binding at 10^−6 M.
In some cases, displacement curves were then produced for compounds which displaced ≧50% of specific binding of the tritiated ligand at 10^−6 M using a range of concentrations of the compound. The Ki was then calculated by simultaneous fitting using equations derived from the Feldman equations by robust non-linear regression to data from three experiments simultaneously (De Lean et al., 1978; Munson and Rodbard, 1980; Feldman, 1992). Munson P J and Rodbard D. Ligand: a versatile computerised approach for characterisation of ligand binding systems. Anal Biochem 1980; 107: 220. Feldman HA. Mathematical theory of complex ligand binding systems at equilibrium: some methods for parameter fitting. Anal Biochem 1992: 48, 317. De Lean A, Munson P J and Rodbard D. Simultaneous analysis of families of sigmoidal curves: application to bioassay, radioligand assay, and physiological dose-response curves. Am J Physiol 1978: 235 (2), E97-E102. […]

For data set [2], the target named is T2, 5-HT reuptake sites (Rattus norvegicus, UniProt P31652).
T2 construct: Frontal cortical tissue from the brains of male Charles River rats; from tissue; host or cells: rat frontal cortical membranes
In words: 5-HT uptake: displacement of [3H]citalopram from 5-HT reuptake sites, rat frontal cortical membranes. In kind it is binding. The conditions noted are these: for Ki: [3H]citalopram 1.3 nM, rat frontal cortical membranes, fit to data from three experiments; for inhibition at 1 µM: 10^−6 M test compound, single determination, [3H]citalopram. As to the method:
as §1, with “7.4 (when measured at” for “7.4 (at”, “buffer; 1:30” for “buffer; 1:60”, “w/v)” for “w/v) using a Kinematic polytron (speed setting 6 for 10 seconds)”, “repeated a further time.” for “repeated twice more so that, in total, the brain tissue was homogenised and centrifuged four times.”, “containing 120” for “containing 300”, “to 3.125” for “to 18.75”
Membranes (400 μl; equivalent to 1.25 mg wet weight of tissue/tube) were incubated with 50 μl [^3H]citalopram at a single concentration of 1.3 nM and 50 μl of distilled water (total binding) or 50 μl of test compound (at a single concentration of 10^−6 M or at 10 concentrations ranging from 10^−11-10^−3 M) or 50 μl of paroxetine (0.5 μM; non-specific binding) for 1 h at 27° C. Membrane bound radioactivity was recovered by filtration under vacuum through Skatron 11734 filters presoaked in 0.5% PEI using a Skatron Cell Harvester. Filters were then washed in ice-cold 50 mM Tris-HCl buffer, pH 7.4 (at 25° C., wash setting 9,9,0). The scored filter paper discs were punched out into vials, scintillation fluid added and radioactivity determined by liquid scintillation counting.
as §2, §3, §4, §5, §6, §7
In some cases, displacement curves were then produced for compounds which displaced ≧50% of specific binding of the tritiated ligand at 10^−6 M using a range of concentrations of the compound. The Ki was then calculated by simultaneous fitting using equations derived from the Feldman equations by robust non-linear regression to data from three experiments simultaneously (De Lean et al., 1978; Munson and Rodbard, 1980; Feldman, 1992). Munson P J and Rodbard D. Ligand: a versatile computerised approach for characterisation of ligand binding systems. Anal Biochem 1980; 107: 220. Feldman HA. Mathematical theory of complex ligand binding systems at equilibrium: some methods for parameter fitting. Anal Biochem 1992: 48, 317. De Lean A, Munson P J and Rodbard D. Simultaneous analysis of families of sigmoidal curves: application to bioassay, radioligand assay, and physiological dose-response curves. Am J Physiol 1978: 235 (2), E97-E102.
The results obtained in the above tests for 5-HT1A binding and 5-HT and NA uptake and muscarinic binding for the final products of Examples 1-39 hereinafter are given in Table 1 below. Kis are in nM. % Figures are for % displacement at 10^−6 M for a single determination.
A general note: In a radioligand displacement assay an active substance lowers the binding of a labelled ligand.

The structures appear in SMILES notation. Like-named read-outs stand apart in the source and are kept apart here.

T1 sequence (Q63380 1-617): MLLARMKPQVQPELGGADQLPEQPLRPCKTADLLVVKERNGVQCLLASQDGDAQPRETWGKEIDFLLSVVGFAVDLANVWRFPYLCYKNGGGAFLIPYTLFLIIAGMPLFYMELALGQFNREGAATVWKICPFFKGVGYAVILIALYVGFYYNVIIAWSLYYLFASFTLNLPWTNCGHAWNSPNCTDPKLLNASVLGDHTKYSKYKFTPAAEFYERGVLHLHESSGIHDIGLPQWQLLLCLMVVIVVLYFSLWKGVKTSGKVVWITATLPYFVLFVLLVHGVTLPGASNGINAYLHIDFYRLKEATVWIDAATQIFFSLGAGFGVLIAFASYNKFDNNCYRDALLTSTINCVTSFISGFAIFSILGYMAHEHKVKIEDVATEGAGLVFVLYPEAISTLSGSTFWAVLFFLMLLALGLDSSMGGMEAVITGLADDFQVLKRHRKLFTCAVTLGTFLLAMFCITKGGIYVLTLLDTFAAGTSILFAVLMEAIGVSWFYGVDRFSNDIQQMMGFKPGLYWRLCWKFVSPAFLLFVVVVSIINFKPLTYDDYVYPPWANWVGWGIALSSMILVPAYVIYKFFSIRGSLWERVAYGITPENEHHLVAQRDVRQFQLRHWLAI
T2 sequence (P31652 whole entry): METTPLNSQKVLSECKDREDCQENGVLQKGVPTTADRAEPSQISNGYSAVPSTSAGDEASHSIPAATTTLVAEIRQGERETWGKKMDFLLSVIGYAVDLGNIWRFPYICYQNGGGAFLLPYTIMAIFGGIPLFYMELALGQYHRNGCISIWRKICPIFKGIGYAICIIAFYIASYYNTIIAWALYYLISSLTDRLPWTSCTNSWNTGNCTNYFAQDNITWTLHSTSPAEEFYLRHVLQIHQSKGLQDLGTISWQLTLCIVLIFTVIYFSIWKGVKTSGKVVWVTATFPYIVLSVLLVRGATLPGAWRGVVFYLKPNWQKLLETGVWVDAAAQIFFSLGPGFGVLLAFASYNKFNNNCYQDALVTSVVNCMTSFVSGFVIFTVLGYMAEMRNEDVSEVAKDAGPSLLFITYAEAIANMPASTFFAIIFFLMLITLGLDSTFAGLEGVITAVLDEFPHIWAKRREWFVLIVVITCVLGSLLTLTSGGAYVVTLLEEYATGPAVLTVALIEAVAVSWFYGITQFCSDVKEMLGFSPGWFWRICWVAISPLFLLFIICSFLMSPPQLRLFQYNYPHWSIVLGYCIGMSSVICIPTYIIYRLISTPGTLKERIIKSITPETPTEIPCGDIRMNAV

One may read the Ki as a dissociation constant, usually derived from enzyme kinetics or from competition with a known ligand. A word on the melting point: it is the temperature, or range, at which the solid turns liquid. `C1=C(c2cccc3sccc23)N2CCN=C2S1.Cl` [Example 2, 3-(benzo[b]thiophen-4-yl)-5,6-dihydroimidazo[2,1-b]thiazole hydrochloride]: the melting point was 246 to 249 °C. This compound also returned a Ki in data set [1] of 9.1 nM. The affinity in data set [2] corresponds to a Ki of 45 nM.

For the compound `Br.CC1=C(c2cccc3sccc23)N2CCN=C2S1` [Example 8, 3-(benzo[b]thiophen-4-yl)-2-methyl-5,6-dihydroimidazo[2,1-b]thiazole hydrobromide], the Ki in data set [1] turned out to be 6.1 nM; in data set [2], 275 nM.

Turning to `CSC1=C(c2cc3ccccc3s2)N2CCN=C2S1` [Example 19, 3-(benzo[b]thiophen-2-yl)-2-(methylthio)-5,6-dihydroimidazo[2,1-b]thiazole], the melting point lay within 95 to 97 °C. In data set [1], the Ki was 5.3 nM. This compound also displayed an inhibition constant (Ki) in data set [2] of 39 nM.

`CC(C)C1=C(c2cccc3sccc23)N2CCN=C2S1.O=C(O)/C=C/C(=O)O` [Example 35, 3-(benzo[b]thiophen-4-yl)-2-(1-methylethyl)-5,6-dihydroimidazo[2,1-b]thiazole fumarate]: the melting point lay in the range of 175 to 178 °C. For the same compound, in data set [1], the affinity corresponds to a Ki of 5.5 nM. For the same compound, the inhibitory constant (Ki) in data set [2] was found to be 83 nM.

For `Br.Oc1cccc2sc(C3=CSC4=NCCN34)cc12` [Example 12, 2-(5,6-dihydroimidazo[2,1-b]thiazol-3-yl)benzo[b]thiophen-4-ol hydrobromide], the figures for the Ki in data set [1] and in data set [2] were 5.8 nM and 16 nM, respectively.

On to `OCC1=C(c2cccc3sccc23)N2CCN=C2S1` [Example 3, [3-(benzo[b]thiophen-4-yl)-5,6-dihydroimidazo[2,1-b]thiazol-2-yl]methanol], for which the melting point lay in the range of 145 to 149 °C. The same compound yielded a Ki in data set [1] of 2.9 nM. The compound also yielded a Ki in data set [2] of 175 nM.

`Br.CC1=C(c2cc3c(F)cccc3s2)N2CCN=C2S1` [Example 7, 3-(4-fluorobenzo[b]thiophen-2-yl)-2-methyl-5,6-dihydroimidazo[2,1-b]thiazole hydrobromide]: the melting point was 224 to 226 °C. The compound further came in with a Ki in data set [1] of 9.5 nM. Besides, the Ki in data set [2] is 127 nM.

Take `Br.CC1=C(c2ccc(F)c3sccc23)N2CCN=C2S1` [Example 38, 3-(7-fluorobenzo[b]thiophen-4-yl)-2-methyl-5,6-dihydroimidazo[2,1-b]thiazole hydrobromide]: the melting point fell in the range of 265 to 267 °C. Also, in data set [1], the Ki is 1.2 nM. Besides, in data set [2], the Ki came out at 61 nM.

Consider `Br.CC1(c2cc3cc(F)ccc3s2)CSC2=NCCN21` (stereo not drawn) [Example 27, 3-(5-fluorobenzo[b]thiophen-2-yl)-3-methyl-5,6-dihydroimidazo[2,1-b]thiazole hydrobromide], for which the results for the inhibition at 1 µM in data set [1] and in data set [2] were 72% and 85%, respectively.

`Br.CCC1=C(c2cc3c(Cl)cccc3s2)N2CCN=C2S1` [Example 18, 3-(4-chlorobenzo[b]thiophen-2-yl)-2-ethyl-5,6-dihydroimidazo[2,1-b]thiazole hydrobromide] came in with a melting point of 187 to 189 °C. In data set [1], the affinity corresponds to a Ki of 29.5 nM. For the same compound, the inhibition at 1 µM in data set [2] turned out to be 96%.

As to `Br.CC1=C(c2cc3c(C)cccc3s2)N2CCN=C2S1` [Example 16, 2-methyl-3-(4-methylbenzo[b]thiophen-2-yl)-5,6-dihydroimidazo[2,1-b]thiazole hydrobromide], the melting point fell in the range of 201 to 204 °C. In data set [1], the inhibition at 1 µM came to 83%. Moreover, the inhibition at 1 µM in data set [2] turned out to be 93%.

In the case of `OCC1=C(c2cc3ccccc3s2)N2CCN=C2S1` [Example 15, [3-(benzo[b]thiophen-2-yl)-5,6-dihydroimidazo[2,1-b]thiazol-2-yl]methanol], the melting point lay within 138 to 140 °C. The Ki in data set [1] amounted to 18 nM. Besides, the inhibition at 1 µM in data set [2] turned out to be 75%.

`CC1=C(c2cccc3ccsc23)N2CCN=C2S1.Cl` [Example 23, 3-(benzo[b]thiophen-7-yl)-2-methyl-5,6-dihydroimidazo[2,1-b]thiazole hydrochloride] yielded a melting point of 210 to 212 °C. The same compound yielded a Ki in data set [1] of 4 nM. In data set [2], the affinity, expressed as Ki, was 229 nM.

For the compound `CSC1=C(c2ccc3sccc3c2)N2CCN=C2S1` [Example 30, 3-(benzo[b]thiophen-5-yl)-2-(methylthio)-5,6-dihydroimidazo[2,1-b]thiazole], the inhibition at 1 µM in data set [1] (10^−6 M test compound, single determination, [3H]nisoxetine) was found to be 101%; in data set [2] it was 95%.

Regarding `CC1=C(c2cccc3sccc23)N2CCN=C2S1.Cl` [Example 9, 3-(benzo[b]thiophen-4-yl)-2-methyl-5,6-dihydroimidazo[2,1-b]thiazole hydrochloride], the Ki in data set [1] was determined as 5.9 nM; in data set [2], 387 nM.

`Br.Clc1cccc2sc(C3=CSC4=NCCN34)cc12` [Example 1, 3-(4-chlorobenzo[b]thiophen-2-yl)-5,6-dihydroimidazo[2,1-b]thiazole hydrobromide] displayed a melting point of 273 to 274 °C. Moreover, the inhibition at 1 µM in data set [1] stood at 103%. Further, in data set [2], the inhibition at 1 µM was 97%.

For `CC(C)C1=C(c2ccc3sccc3c2)N2CCN=C2S1` [Example 29, 3-(benzo[b]thiophen-5-yl)-2-(1-methylethyl)-5,6-dihydroimidazo[2,1-b]-thiazole], the Ki stood at 3.7 nM in data set [1] and 4.1 nM in data set [2].
